This is an account of results in patent publication US20230303540A1 (Merck Sharp & Dohme LLC, priority 2020, published 2023).

This experiment has as its target GST-tagged truncated human mutant G2019S LRRK2 (Homo sapiens, UniProt Q5S007, G2019S). Kind of experiment: LRRK2 G2019S Km ATP LanthaScreen assay. Conditions: 134 μM ATP (Km ATP), LRRKtide substrate, mean IC50 values; read-out: LRRK2 pIC50 (converted). It is filed as biochemical. The protocol: Unless otherwise noted, all reactions are magnetically stirred. Unless otherwise noted, when diethyl ether is used in the experiments described below, it is Fisher ACS certified material and is stabilized with BHT. Unless otherwise noted, “concentrated” and/or “solvent removed under reduced pressure” means evaporating the solvent from a solution or mixture using a rotary evaporator or vacuum pump. Unless otherwise noted, flash chromatography is carried out on a Teledyne Isco (Lincoln, NE), Analogix (Burlington, WI), or Biotage (Stockholm, SWE) automated chromatography system using a commercially available cartridge as the column. Columns may be purchased from Teledyne Isco, Analogix, Biotage, Varian (Palo Alto, CA), or Supelco (Bellefonte, PA) and are usually filled with silica gel as the stationary phase. Reverse phase prep-HPLC conditions, where used, can be found at the end of each experimental section. Aqueous solutions were concentrated on a Genevac (Ipswich, ENG) or by freeze-drying/lyophilization. Unless otherwise noted, all LRRK2 pIC50 data presented in tables refers to the LRRK2 G2019S Km ATP LanthaScreen™ assay (Life Technologies Corp., Carlsbad, CA) that is described in the Biological Assay section.
The IC50 values reported herein were measured as follows.
Biological Assay: LRRK2 Km ATP LanthaScreen™ Assay
The LRRK2 kinase activity reported herein as IC50 values was determined with LanthaScreen™ technology from Life Technologies Corporation (Carlsbad, CA) using GST-tagged truncated human mutant G2019S LRRK2 in the presence of the fluorescein-labeled peptide substrate LRRKtide, also from Life Technologies. The data presented for the Km ATP LanthaScreen™ Assay represents mean IC50 values based on several test results and may have reasonable deviations depending on the specific conditions and reagents used. Assays were performed in the presence of 134 μM ATP (Km ATP). Upon completion, the assay was stopped and phosphorylated substrate detected with a terbium (Tb)-labeled anti-pERM antibody (cat. no. PV4898). The compound dose response was prepared by diluting a 10 mM stock of compound to a maximum concentration of 9.99 μM in 100% dimethylsulfoxide followed by custom fold serial dilution in dimethylsulfoxide nine times. Twenty nanoliters of each dilution was spotted via a Labcyte Echo onto a 384-well black-sided plate (Corning 3575) followed by 15 μl of a 1.25 nM enzyme solution in 1× assay buffer (50 mM Tris pH 8.5, 10 mM MgCl2, 0.01% Brij-35, 1 mM EGTA, 2 mM dithiothreitol, 0.05 mM sodium orthovanadate). Following a 15-minute incubation at room temperature, the kinase reaction was started with the addition of 5 μl of 400 nM fluorescein-labeled LRRKtide peptide substrate and 134 μM ATP solution in 1× assay buffer. The reaction was allowed to progress at ambient temperature for 90 minutes. The reaction was then stopped by the addition of 20 μl of TR-FRET Dilution Buffer (Life Technologies, Carlsbad, CA) containing 2 nM Tb-labeled anti-phospho LRRKtide antibody and 10 mM EDTA (Life Technologies, Carlsbad, CA). After an incubation of 1 hour at room temperature, the plate was read on an EnVision multimode plate reader (Perkin Elmer, Waltham, MA) with an excitation wavelength of 337 nm (Laser) and a reading emission at both 520 and 495 nm. Compound IC50s were interpolated from nonlinear regression best fits of the log of the final compound concentration, plotted as a function of the 520/495-nm emission ratio using Activity base. Abase uses a 4 parameter (4P) logistic fit based on the Levenberg-Marquardt algorithm.
(In general: Time-resolved FRET reads energy transfer from a long-lived donor to a nearby acceptor.)
Turning to `Cc1cc2cnc(Nc3cnn(C4CC4)c3C)nc2cc1N1CCN(C2(C)COCC2O)CC1` (single isomer, unassigned) [Ex-5.4, (3S,4S) or (3R,4R) 4-(4-(2-((1-cyclopropyl-5-methyl-1H-pyrazol-4-yl)amino)-6-methylquinazolin-7-yl)piperazin-1-yl)-4-methyltetrahydrofuran-3-ol], the IC50 is 0.18 nM. Under `Cc1cc2cnc(Nc3cnn(C4CC4(F)F)c3Cl)nc2cc1N1CCN(C2(C)COCC2O)CC1` (single isomer, unassigned) [Ex-5.5, (3S,4S) or (3R,4R) 4-(4-(2-((5-chloro-1-(2,2-(R) or (S)difluorocyclopropyl)-1H-pyrazol-4-yl)amino)-6-methylquinazolin-7-yl)piperazin-1-yl)-4-methyltetrahydrofuran-3-ol] stands 0.42 nM; under `Cc1cc2cnc(Nc3cnn(C4CC4)c3Cl)nc2cc1N1CCN(C2(C)COCC2O)CC1` (single isomer, unassigned) [Ex-5.6, (3S,4S) or (3R,4R) 4-(4-(2-((5-chloro-1-cyclopropyl-1H-pyrazol-4-yl)amino)-6-methylquinazolin-7-yl)piperazin-1-yl)-4-methyltetrahydrofuran-3-ol], 0.403 nM; under `Cc1cc2cnc(Nc3cnn(C4CC4)c3C)nc2cc1N1CCN(C2COCC2O)CC1` (single isomer, unassigned) [Ex-5.7, (3S,4S) or (3R,4R) 4-(4-{2-[(1-cyclopropyl-5-methyl-1H-pyrazol-4-yl)amino]-6-methylquinazolin-7-yl}piperazin-1-yl)oxolan-3-ol], 0.197 nM. `Cc1cc2cnc(Nc3cnn(C4CC4)c3Cl)nc2cc1N1CCN(C2COCC2O)CC1` (single isomer, unassigned) [Ex-5.8, (3S,4S) or (3R,4R) 4-(4-{2-[(5-chloro-1-cyclopropyl-1H-pyrazol-4-yl)amino]-6-methylquinazolin-7-yl}piperazin-1-yl)oxolan-3-ol]: the IC50 is 0.17 nM. As for `Cc1cc2cnc(Nc3cnn(C45CC(C4)C5)c3Cl)nc2cc1N1CCN(C2COCC2O)CC1` (single isomer, unassigned) [Ex-5.12, (3S,4S) or (3R,4R) 4-(4-(2-((1-(bicyclo[1.1.1]pentan-1-yl)-5-chloro-1H-pyrazol-4-yl)amino)-6-methylquinazolin-7-yl)piperazin-1-yl)tetrahydrofuran-3-ol], the figure is 5.17 nM; as for `Cc1cc2cnc(Nc3cnn(C45CC(C4)C5)c3Cl)nc2cc1N1CCN(C2COCC2O)CC1` (single isomer, unassigned) [Ex-5.13, (3S,4S) or (3R,4R) 4-(4-(2-((1-(bicyclo[1.1.1]pentan-1-yl)-5-chloro-1H-pyrazol-4-yl)amino)-6-methylquinazolin-7-yl)piperazin-1-yl)tetrahydrofuran-3-ol], 1.05 nM; as for `Cc1cc2cnc(Nc3cnn(C45CC(C4)C5)c3Cl)nc2cc1N1CC2(C1)CN(C1COCC1O)C2` (single isomer, unassigned) [Ex-5.16, (3R,4R) or (3S,4S) 4-(6-(2-((1-(bicyclo[1.1.1]pentan-1-yl)-5-chloro-1H-pyrazol-4-yl)amino)-6-methylquinazolin-7-yl)-2,6-diazaspiro[3.3]heptan-2-yl)tetrahydrofuran-3-ol], 20.9 nM. As for `CC1(N2CCN(c3cc4nc(Nc5cnn(C6CC6(F)F)c5Cl)ncc4cc3Cl)CC2)COCC1O` (single isomer, unassigned) [Ex-6.2, (3S,4S) or (3R,4R) 4-(4-(6-chloro-2-((5-chloro-1-(2,2-(R) or (S)difluorocyclopropyl)-1H-pyrazol-4-yl)amino)quinazolin-7-yl)piperazin-1-yl)-4-methyltetrahydrofuran-3-ol], the figure is 0.08 nM; as for `Cn1ncc(Nc2ncc3cc(Cl)c(N4CCN(C5COCC5O)CC4)cc3n2)c1Cl` (single isomer, unassigned) [Ex-6.7, (3S,4S) or (3R,4R) 4-(4-{6-chloro-2-[(5-chloro-1-methyl-1H-pyrazol-4-yl)amino]quinazolin-7-yl}piperazin-1-yl)oxolan-3-ol], 1.59 nM. For `Cc1c(Nc2ncc3cc(Cl)c(N4CCC(C)(O)CC4)cc3n2)cnn1C1CC1(F)F` (single isomer, unassigned) [Ex-6.9, 1-(6-chloro-2-{[1-(2,2-(R) or (S)difluorocyclopropyl)-5-methyl-1H-pyrazol-4-yl]amino}quinazolin-7-yl)-4-methylpiperidin-4-ol], the IC50 is 1.79 nM.

Regarding `Cc1c(Nc2ncc3cc(Cl)c(N4CCC(C)(O)CC4)cc3n2)cnn1C1CC1(F)F` (single isomer, unassigned) [Ex-6.10, 1-(6-chloro-2-{[1-(2,2-(R) or (S)difluorocyclopropyl)-5-methyl-1H-pyrazol-4-yl]amino}quinazolin-7-yl)-4-methylpiperidin-4-ol], the IC50 was 0.2 nM. Under `COC1CCC1n1ncc(Nc2ncc3cc(Cl)c(N4CCC(C)(O)CC4)cc3n2)c1C` (single isomer, unassigned) [Ex-6.16, 1-(6-chloro-2-((1-((1R,2S) or (1S,2R)-2-methoxycyclobutyl)-5-methyl-1H-pyrazol-4-yl)amino)quinazolin-7-yl)-4-methylpiperidin-4-ol] stands 1.57 nM; under `COC1CCC1n1ncc(Nc2ncc3cc(Cl)c(N4CCC(C)(O)CC4)cc3n2)c1C` (single isomer, unassigned) [Ex-6.17, 1-[6-chloro-2-({1-[(1R,2S) or (1S,2R)-2-methoxycyclobutyl]-5-methyl-1H-pyrazol-4-yl}amino)quinazolin-7-yl]-4-methylpiperidin-4-ol], 10.5 nM; under `Cc1c(Nc2ncc3cc(Cl)c(N4CCN(C5(C)COCC5O)CC4)cc3n2)cnn1C1CC1` (single isomer, unassigned) [Ex-6.18, (3S,4S) or (3R,4R) 4-(4-{6-chloro-2-[(1-cyclopropyl-5-methyl-1H-pyrazol-4-yl)amino]quinazolin-7-yl}piperazin-1-yl)-4-methyloxolan-3-ol], 0.322 nM. Consider `COC1CCC1n1ncc(Nc2ncc3cc(Cl)c(N4CCC(C)(O)CC4)cc3n2)c1C` (single isomer, unassigned) [Ex-6.19, 1-[6-chloro-2-({1-[(1R,2R) or (1S,2S)-2-methoxycyclobutyl]-5-methyl-1H-pyrazol-4-yl}amino)quinazolin-7-yl]-4-methylpiperidin-4-ol], for which the IC50 was 2.17 nM. Turning to `COC1CCC1n1ncc(Nc2ncc3cc(Cl)c(N4CCC(C)(O)CC4)cc3n2)c1C` (single isomer, unassigned) [Ex-6.20, 1-[6-chloro-2-({1-[(1R,2R) or (1S,2S)-2-methoxycyclobutyl]-5-methyl-1H-pyrazol-4-yl}amino)quinazolin-7-yl]-4-methylpiperidin-4-ol], the IC50 was 2.53 nM. Under `Cc1c(Nc2ncc3cc(Cl)c(N4CCN(C5COCC5O)CC4)cc3n2)cnn1C(C)(C)C#N` (single isomer, unassigned) [Ex-6.21, (3S,4S) or (3R,4R) 2-[4-({6-chloro-7-[4-(4-hydroxyoxolan-3-yl)piperazin-1-yl]quinazolin-2-yl}amino)-5-methyl-1H-pyrazol-1-yl]-2-methylpropanenitrile] stands 0.323 nM. As for `Cc1c(Nc2ncc3cc(Cl)c(N4CCN(C5(C)COCC5O)CC4)cc3n2)cnn1C1CC1` (single isomer, unassigned) [Ex-6.22, (3S,4S) or (3R,4R) 4-(4-{6-chloro-2-[(1-cyclopropyl-5-methyl-1H-pyrazol-4-yl)amino]quinazolin-7-yl}piperazin-1-yl)-4-methyloxolan-3-ol], the figure is 33.5 nM. Under `Cc1c(Nc2ncc3cc(Cl)c(N4CCN(C5COCC5O)CC4)cc3n2)cnn1C(C)(C)C#N` (single isomer, unassigned) [Ex-6.23, (3S,4S) or (3R,4R) 2-[4-({6-chloro-7-[4-(4-hydroxyoxolan-3-yl)piperazin-1-yl]quinazolin-2-yl}amino)-5-methyl-1H-pyrazol-1-yl]-2-methylpropanenitrile] stands 13.2 nM.
